Entries after “also recorded” stand apart in the source; their conditions may differ.
Key:
[1] = tested on: TRIM66 (PB); assay: dCypher AlphaScreen Phase B (full peptide screen); type: binding, human; details: reader 7 nM, 100 nM peptide, 23 °C
Description: (§1) X-axes are log(protein concentration (M)) at constant peptide concentration (100 nM); Y-axes are AlphaScreen counts, representing relative strength of binding (n = 2; error bars are S.D.). i Heat map represents relative binding to H3 N-terminal peptides (left) by PHD-containing GST-tagged proteins (top) using the dCypher AlphaScreen platform. Protein concentrations can be found in Additional file 5: Table S4. Binding strength is indicated by color gradient from green to yellow (stronger to weaker). […] Alpha counts (n = 2) were normalized individually for each protein to the highest signal for each respective assay. For full dCypher peptide screen data, see Additional file 4: Table S3
(§2) Once the optimal protein concentration ranges for each of the eight readers were determined, we conducted the full dCypher peptide screen (293 histone peptides) (Fig. 3i; Additional file 4: Table S3).
(§3) The dCypher peptide screen assay was performed as previously described. Briefly, 5 μL of GST-tagged reader domains (optimal protein concentration for library screening determined by initial binding curves to candidate peptides) were incubated with 5 μL of 400 nM (100 nM Final) biotinylated histone peptides (EpiCypher) for 30 min at 23 °C in 1× AlphaLISA Epigenetics buffer + epigenetics buffer supplement (PerkinElmer, AL1008) in a 384-well plate. A 10 μL mix of 5 µg/mL (2.5 μg/mL final) glutathione Acceptor beads (PerkinElmer, AL109M) and 10 μg/mL (5 μg/mL final) streptavidin Donor beads (PerkinElmer, 6760002) was prepared in 1× [Epigenetics buffer + supplement] and added to each well. Plates were incubated at 23 °C in subdued lighting for 60 min and AlphaLISA signal measured on a PerkinElmer 2104 EnVision (680 nm laser excitation, 570 nm emission filter ± 50 nm bandwidth).
(§4) Supplementary file 13072_2020_328_MOESM4_ESM.xlsx: Additional file 4: Table S3. dCypher Results. Excel Tab Peptide Phase A is a compiled set of binding data: chromatin reader titration vs. several peptide targets. Data is presented as raw Alpha counts in duplicates at each concentration tested. Excel Tab Peptide Phase B is a compiled set of binding data: chromatin reader at optimized concentrations vs. entire 293 peptide library. Data is presented as the average and standard deviation of duplicates. […] Key: red = strong binding; blue = weak/no binding.

[2] = tested on: CHD5 (PPCC); assay: dCypher AlphaScreen Phase B (full peptide screen); type: binding, human; details: reader 5.2 nM, 100 nM peptide, 23 °C, n = 2
Description: as §1, §2, §3, §4

[3] = tested on: 123 annotated human PHD-containing domains; assay: PHD finger domain microarray probed with biotinylated peptides (all domains); type: binding; details: for binding on domain microarray: GST-PHD readers in duplicate on nitrocellulose slides, biotinylated peptide pre-labeled with streptavidin-Cy3; for number of H3-interacting domains with preference for this state: out of 31 H3-binding domains
Text: To define the histone binding preferences of the PHD finger proteome, we expressed and purified 123 annotated human PHD-containing domains as GST-tagged recombinant fusions from E. coli. The recombinant proteins consisted of either PHD fingers in isolation, or as tandem domains if a given PHD finger was located adjacent to another reader domain (e.g., one or more PHD fingers, Tudor, chromo and/or bromodomains) (Additional file 1: Table S1). These GST fusions were printed in duplicate on nitrocellulose-coated microarray slides and probed with biotinylated peptides that represented the N-termini of H3, H4, H2A or H2B (Fig. 1a and Additional file 2: Figure S1). As the majority of PHD readers thus far characterized are H3K4me0/3 readers, we included additional peptides (H3K4 as either mono-, di-, or trimethylated) to further determine any H3K4 methyl preference (Additional file 2: Figure S2 and Fig. 1b). As a control, we also probed these microarrays with an α-Tubulin peptide (a.a. 30–50) that would not be predicted to interact with PHD fingers (Additional file 2: Figure S1). […] We also cannot exclude the possibility that some PHD fingers might not be functionally active on the microarrays (perhaps due to misfolding or the lack of an important adjacent region).
The protein domain microarray was designed to include 123 GST-tagged PHD-domain containing recombinant proteins. Protein domain microarray development and probing was as previously. Briefly, recombinant proteins were synthesized and cloned into pGEX-4T-1 vector by Biomatik Corporation. These GST-PHD readers were subsequently expressed, purified, and spotted in duplicate onto nitrocellulose-coated glass slides (Oncyte Avid slides, Grace Bio-Labs) using a pin arrayer (Aushon 2470, Aushon). For probing, microarray slides were blocked with 3% milk, 3% bovine serum albumin, 0.1% Tween 20 in PBS. Biotinylated peptides were pre-labeled with streptavidin-Cy3 fluorophore (GE Healthcare) and incubated with the blocked array slides. Slides were then washed with PBST and allowed to air dry. Fluorescent interactions were visualized using a GenePix 4200A Microarray Scanner (Molecular Devices).

[4] = tested on: PHF23; assay: Histone peptide microarray; type: binding, human; details: GST-tagged PHF23, sheet Array Heatmap, each array performed twice, total n = 4
Summary of the method: (§5)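 Purified PHD finger domains fused to GST are screened against 293 synthetic histone peptides bearing one or several post-translational modifications. The protein is used at 0.5 μM, and the signal from four replicate arrays is averaged, with standard deviation given.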

[5] = tested on: CHD4 (PPCC); assay: Histone peptide microarray; type: binding, human; details: for Array Heatmap signal (histone peptide microarray): GST-tagged CHD4 (PPCC = Dual PHD + Dual Chromodomain), sheet Array Heatmap, each array performed twice, total n = 4; for relative binding: peptide microarray, reader 0.5 μM, n = 4
Summary of the method: as §5

[6] = tested on: TRIM66 (PB); assay: Histone peptide microarray; type: binding, human; details: GST-tagged TRIM66 (PB = PHD + Bromodomain), sheet Array Heatmap, each array performed twice, total n = 4
Summary of the method: as §5

[7] = tested on: KDM4C (TTP); assay: Histone peptide microarray; type: binding, human; details: GST-tagged KDM4C (TTP = Tandem Tudor domain + PHD), sheet Array Heatmap, each array performed twice, total n = 4
Summary of the method: as §5

[8] = tested on: PHRF1 (RP); assay: dCypher AlphaScreen Phase B (full peptide screen); type: binding, human; details: reader 15 nM, 100 nM peptide, 23 °C, n = 2
Description: as §1, §2, §3, §4

Substance	binding [2]	binding on domain microarray [3]	binding [8]	relative binding [5]	number of PHD-containing fusions with positive binding ([3]; of 123 PHD-containing fusions)	binding ([1]; n = 2)	Array Heatmap signal (histone peptide microarray) [4]	Array Heatmap signal (histone peptide microarray) [5]	Array Heatmap signal (histone peptide microarray) [6]	Array Heatmap signal (histone peptide microarray) [7]	number of H3-interacting domains with preference for this state [3]	Array Heatmap signal (histone peptide microarray) ([4]; listed as 2)	Array Heatmap signal (histone peptide microarray) ([4]; listed as 3)	Array Heatmap signal (histone peptide microarray) ([5]; listed as 2)	Array Heatmap signal (histone peptide microarray) ([5]; listed as 3)	Array Heatmap signal (histone peptide microarray) ([6]; listed as 2)	Array Heatmap signal (histone peptide microarray) ([6]; listed as 3)	Array Heatmap signal (histone peptide microarray) ([7]; listed as 2)	Array Heatmap signal (histone peptide microarray) ([7]; listed as 3)	binding ([1]; n = 2, listed as H3K4me0)
H3K4me1: H3 1-20 [Peptide H3K4me1]	preference for H3K4me0/1	did not detect H3K4me1 to the same degree	–	–	–	preference for H3K4me0 and me1	0.579	0.5818	0.6245	0.5341	–	–	–	–	–	–	–	–	–	–
H3S10p: H3 1-20 [Peptide H3S10p]	–	–	–	–	–	–	0.5413	0.6003	0.7641	0.5402	–	–	–	–	–	–	–	–	–	–
H3K9me3: H3 1-20 [Peptide H3K9me3]	ability to bind to the peptides containing H3K9me3	–	more limited interactions	no difference in binding	–	ability to bind to the peptides containing H3K9me3	0.5665	0.5917	0.7052	0.4665	–	–	–	–	–	–	–	–	–	–
H3K9ac: H3 1-20 [Peptide H3K9ac]	–	–	–	increased binding	–	–	–	–	–	–	–	0.5351	0.5457	0.6247	0.6748	0.8314	0.731	0.4318	0.4332	–

Continued, in another order:

binding [2]	binding on domain microarray [3]	binding [8]	relative binding [5]	number of PHD-containing fusions with positive binding ([3]; of 123 PHD-containing fusions)	Substance	binding ([1]; n = 2)	Array Heatmap signal (histone peptide microarray) [4]	Array Heatmap signal (histone peptide microarray) [5]	Array Heatmap signal (histone peptide microarray) [6]	Array Heatmap signal (histone peptide microarray) [7]	number of H3-interacting domains with preference for this state [3]	Array Heatmap signal (histone peptide microarray) ([4]; listed as 2)	Array Heatmap signal (histone peptide microarray) ([4]; listed as 3)	Array Heatmap signal (histone peptide microarray) ([5]; listed as 2)	Array Heatmap signal (histone peptide microarray) ([5]; listed as 3)	Array Heatmap signal (histone peptide microarray) ([6]; listed as 2)	Array Heatmap signal (histone peptide microarray) ([6]; listed as 3)	Array Heatmap signal (histone peptide microarray) ([7]; listed as 2)	Array Heatmap signal (histone peptide microarray) ([7]; listed as 3)	binding ([1]; n = 2, listed as H3K4me0)
–	largely recognized equivalently	–	–	–	H3K4me3: H3 1-20 [Peptide H3K4me3]	–	0.678	0.5281	0.622	0.4579	18	–	–	–	–	–	–	–	–	–
preference for H3K4me0/1	–	more limited interactions	no difference in binding	31	H3 (1-20): unmodified H3 N-terminal peptide (1–20)	–	0.5836	0.5925	0.7114	0.431	10	–	–	–	–	–	–	–	–	preference for H3K4me0 and me1; also recorded: robust readers of H3K4me0 peptides
–	largely recognized equivalently	–	–	–	H3K4me2: H3 1-20 [Peptide H3K4me2]	–	0.6135	0.5852	0.6781	0.5984	–	–	–	–	–	–	–	–	–	–

— PMC6979384, “Characterization of the plant homeodomain (PHD) reader family for their histone tail interactions” (Epigenetics & Chromatin, 2020)
